Data: patent publication US20100267561A1, “HERBICIDAL PYRIDAZINONE DERIVATIVES” (priority 2007, published 2010)
Read-outs that look alike come from different tables or passages of the source.

Assays:
Type in all cases: in vivo
[1] = test system: Italian ryegrass (Lolium multiflorum); test: Test B pre-/postemergence plant response; settings: Lolium multiflorum, read-out: Plant response rating, Ryegrass, Italian; for pest or weed control at 16 g/ha: 16 g ai/ha; for pest or weed control at 31 g/ha: 31 g ai/ha, 100 complete control; for pest or weed control at 62 g/ha: 62 g ai/ha; for pest or weed control at 125 g/ha: 125 g ai/ha
Method in brief: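 Visual scoring from 0 (no effect) to 100 (complete control) against untreated controls was done 13 to 15 days after greenhouse treatment. Chemicals were formulated in a surfactant-containing non-phytotoxic solvent and applied to soil preemergence or to 1- to 4-leaf (2-18 cm) plants postemergence.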

[2] = test system: blackgrass (Alopecurus myosuroides); test: Test C pre-/postemergence plant response
Method in brief: (§1)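 Ratings ran from 0 (no effect) to 100 (complete control) and were made visually against untreated controls 15–25 days after treatment in a controlled growth environment. Application was preemergence and, for some chemicals, postemergence at the 1- to 4-leaf stage (2–18 cm). Formulation was a non-phytotoxic solvent mixture with surfactant.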

[3] = test system: downy bromegrass (Bromus tectorum); test: Test C pre-/postemergence plant response
Method in brief: as §1

[4] = test system: Italian ryegrass (Lolium multiflorum); test: Test C pre-/postemergence plant response
Method in brief: as §1

[5] = test system: winter wheat (Triticum aestivum); test: Test C pre-/postemergence plant response
Method in brief: as §1

[6] = test system: canarygrass (Phalaris minor); test: Test C pre-/postemergence plant response
Method in brief: as §1

[7] = test system: wild mustard (Sinapis arvensis); test: Test C pre-/postemergence plant response
Method in brief: as §1

[8] = test system: green foxtail (Setaria viridis); test: Test C pre-/postemergence plant response
Method in brief: as §1

[9] = test system: winter barley (Hordeum vulgare); test: Test C pre-/postemergence plant response
Method in brief: as §1

[10] = test system: annual bluegrass (Poa annua); test: Test C pre-/postemergence plant response
Method in brief: as §1

[11] = test system: windgrass (Apera spica-venti); test: Test C pre-/postemergence plant response
Method in brief: as §1

[12] = test system: pigweed (Amaranthus retroflexus); test: Test C pre-/postemergence plant response
Method in brief: as §1

[13] = test system: spring wheat (Triticum aestivum); test: Test C pre-/postemergence plant response
Method in brief: as §1

wild oat (Avena fatua) = test: Test C pre-/postemergence plant response
Method in brief: as §1

[14] = post-emergence, Postemergence, scale 0 to 100
[15] = pre-emergence, Preemergence, scale 0 to 100
[16] = Postemergence, 8 g ai/ha, scale 0 to 100, 0 no effect, 100 complete control
[17] = Postemergence, 16 g ai/ha, scale 0 to 100, 0 no effect, 100 complete control
[18] = Postemergence, 31 g ai/ha, scale 0 to 100, 0 no effect, 100 complete control
[19] = Postemergence, 62 g ai/ha, scale 0 to 100, 0 no effect, 100 complete control
[20] = Preemergence, 8 g ai/ha, scale 0 to 100 (0 no effect, 100 complete control)
[21] = Preemergence, 16 g ai/ha, scale 0 to 100 (0 no effect, 100 complete control)
[22] = Preemergence, 31 g ai/ha, scale 0 to 100 (0 no effect, 100 complete control)
[23] = Preemergence, 62 g ai/ha, scale 0 to 100, 0 no effect, 100 complete control

Compound: CCc1cc(-c2ccc(C(F)(F)F)cc2)nn1-c1c(O)cnn(C)c1=O [Compound 11, 4-[5-ethyl-3-[4-(trifluoromethyl)phenyl]-1H-pyrazol-1-yl]-5-hydroxy-2-methyl-3(2H)-pyridazinone]
- pest or weed control at 16 g/ha [1, 14]: 100%
- pest or weed control at 31 g/ha ([1]; post-emergence, Postemergence, scale 0 to 100, 0 no effect): 100%
- pest or weed control at 62 g/ha [1, 14]: 100%
- pest or weed control at 125 g/ha [1, 14]: 100%
- pest or weed control at 16 g/ha ([1]; pre-emergence, Preemergence, scale 0 to 100 (0 no effect, 100 complete control)): 90%
- pest or weed control at 31 g/ha ([1]; pre-emergence, Preemergence, 0 to 100 scale, 0 no effect): 100%
- pest or weed control at 62 g/ha [1, 15]: 100%
- pest or weed control at 125 g/ha [1, 15]: 100%
- Plant response rating, Blackgrass [2, 16]: 100
- Plant response rating, Blackgrass [2, 17]: 100
- Plant response rating, Blackgrass [2, 18]: 100
- Plant response rating, Blackgrass [2, 19]: 100
- Plant response rating, Blackgrass [2, 20]: 85
- Plant response rating, Blackgrass [2, 21]: 90
- Plant response rating, Blackgrass [2, 22]: 90
- Plant response rating, Blackgrass [2, 23]: 100
- Plant response rating, Bromegrass, Downy [3, 16]: 50
- Plant response rating, Bromegrass, Downy [3, 17]: 80
- Plant response rating, Bromegrass, Downy [3, 18]: 98
- Plant response rating, Bromegrass, Downy [3, 19]: 98
- Plant response rating, Bromegrass, Downy [3, 20]: 35
- Plant response rating, Bromegrass, Downy [3, 21]: 65
- Plant response rating, Bromegrass, Downy [3, 22]: 70
- Plant response rating, Bromegrass, Downy [3, 23]: 100
- Plant response rating, Ryegrass, Italian [4, 16]: 98
- Plant response rating, Ryegrass, Italian [4, 17]: 98
- Plant response rating, Ryegrass, Italian [4, 18]: 100
- Plant response rating, Ryegrass, Italian [4, 19]: 100
- Plant response rating, Ryegrass, Italian [4, 20]: 85
- Plant response rating, Ryegrass, Italian [4, 21]: 98
- Plant response rating, Ryegrass, Italian [4, 22]: 100
- Plant response rating, Ryegrass, Italian [4, 23]: 100
- Plant response rating, Wheat, Winter [5, 16]: 90
- Plant response rating, Wheat, Winter [5, 17]: 100
- Plant response rating, Wheat, Winter [5, 18]: 100
- Plant response rating, Wheat, Winter [5, 19]: 100
- Plant response rating, Wheat, Winter [5, 20]: 20
- Plant response rating, Wheat, Winter [5, 21]: 40
- Plant response rating, Wheat, Winter [5, 22]: 100
- Plant response rating, Wheat, Winter [5, 23]: 100
- Plant response rating, Canarygrass [6, 16]: 65
- Plant response rating, Canarygrass [6, 17]: 100
- Plant response rating, Canarygrass [6, 18]: 100
- Plant response rating, Canarygrass [6, 19]: 100
- Plant response rating, Canarygrass [6, 20]: 15
- Plant response rating, Canarygrass [6, 21]: 75
- Plant response rating, Canarygrass [6, 22]: 98
- Plant response rating, Canarygrass [6, 23]: 100
- Plant response rating, Mustard, Wild [7, 16]: 0
- Plant response rating, Mustard, Wild [7, 17]: 25
- Plant response rating, Mustard, Wild [7, 18]: 25
- Plant response rating, Mustard, Wild [7, 19]: 40
- Plant response rating, Mustard, Wild [7, 20]: 0
- Plant response rating, Mustard, Wild [7, 21]: 0
- Plant response rating, Mustard, Wild [7, 22]: 0
- Plant response rating, Mustard, Wild [7, 23]: 0
- Plant response rating, Foxtail, Green [8, 16]: 95
- Plant response rating, Foxtail, Green [8, 17]: 98
- Plant response rating, Foxtail, Green [8, 18]: 100
- Plant response rating, Foxtail, Green [8, 19]: 100
- Plant response rating, Foxtail, Green [8, 20]: 100
- Plant response rating, Foxtail, Green [8, 21]: 100
- Plant response rating, Foxtail, Green [8, 22]: 100
- Plant response rating, Foxtail, Green [8, 23]: 100
- Plant response rating, Barley, Winter [9, 16]: 60
- Plant response rating, Barley, Winter [9, 17]: 70
- Plant response rating, Barley, Winter [9, 18]: 95
- Plant response rating, Barley, Winter [9, 19]: 100
- Plant response rating, Barley, Winter [9, 20]: 20
- Plant response rating, Barley, Winter [9, 21]: 40
- Plant response rating, Barley, Winter [9, 22]: 75
- Plant response rating, Barley, Winter [9, 23]: 95
- Plant response rating, Bluegrass [10, 16]: 0
- Plant response rating, Bluegrass [10, 17]: 15
- Plant response rating, Bluegrass [10, 18]: 15
- Plant response rating, Bluegrass [10, 19]: 20
- Plant response rating, Bluegrass [10, 20]: 0
- Plant response rating, Bluegrass [10, 21]: 20
- Plant response rating, Bluegrass [10, 23]: 30
- Plant response rating, Windgrass [11, 16]: 95
- Plant response rating, Windgrass [11, 17]: 95
- Plant response rating, Windgrass [11, 18]: 95
- Plant response rating, Windgrass [11, 19]: 95
- Plant response rating, Windgrass [11, 20]: 100
- Plant response rating, Windgrass [11, 21]: 100
- Plant response rating, Windgrass [11, 22]: 100
- Plant response rating, Windgrass [11, 23]: 100
- Plant response rating, Pigweed [12, 16]: 0
- Plant response rating, Pigweed [12, 17]: 10
- Plant response rating, Pigweed [12, 18]: 10
- Plant response rating, Pigweed [12, 19]: 20
- Plant response rating, Pigweed [12, 20]: 0
- Plant response rating, Pigweed [12, 21]: 0
- Plant response rating, Pigweed [12, 22]: 0
- Plant response rating, Pigweed [12, 23]: 15
- Plant response rating, Wheat, Spring [13, 16]: 65
- Plant response rating, Wheat, Spring [13, 17]: 90
- Plant response rating, Wheat, Spring [13, 18]: 98
- Plant response rating, Wheat, Spring [13, 19]: 98
- Plant response rating, Wheat, Spring [13, 20]: 50
- Plant response rating, Wheat, Spring [13, 21]: 60
- Plant response rating, Wheat, Spring [13, 22]: 75
- Plant response rating, Wheat, Spring [13, 23]: 100
- Plant response rating, Oat, Wild (wild oat (Avena fatua); [16]): 100
- Plant response rating, Oat, Wild (wild oat (Avena fatua); [17]): 100
- Plant response rating, Oat, Wild (wild oat (Avena fatua); [18]): 100
- Plant response rating, Oat, Wild (wild oat (Avena fatua); [19]): 100
- Plant response rating, Oat, Wild (wild oat (Avena fatua); [20]): 98
- Plant response rating, Oat, Wild (wild oat (Avena fatua); [21]): 98
- Plant response rating, Oat, Wild (wild oat (Avena fatua); [22]): 98
- Plant response rating, Oat, Wild (wild oat (Avena fatua); [23]): 100
